Experimental data taken from US7425556B2 (priority 2005, dated 2008).

Assays:
[1] = molecular target: T1, GABAA2 (human α2β3γ2 GABAA receptor) (Homo sapiens, UniProt P18507+P47869); assay: Two-electrode voltage-clamp in Xenopus oocytes, potentiation of GABA EC10 current, GABAA2; format: cell-based; conditions: percentage potentiation of GABA EC10 current divided by that of diazepam
T1 construct: expressed in transfected cells; host or cells: Xenopus laevis oocytes injected with capped cRNA

[2] = molecular target: T2, GABAA2 receptors (α2, β3, γ2 receptor subunits) (Homo sapiens, UniProt P18507+P47869); assay: biochemical; conditions: [3H]-Flunitrazepam ~2 nM, α2β3γ2 Sf9 membranes, 1 hr at 4° C.; read-out: GABAA2 Binding Ki
T2 construct: host or cells: Sf9 cells (membranes)
T2 sequence (P47869 29-451): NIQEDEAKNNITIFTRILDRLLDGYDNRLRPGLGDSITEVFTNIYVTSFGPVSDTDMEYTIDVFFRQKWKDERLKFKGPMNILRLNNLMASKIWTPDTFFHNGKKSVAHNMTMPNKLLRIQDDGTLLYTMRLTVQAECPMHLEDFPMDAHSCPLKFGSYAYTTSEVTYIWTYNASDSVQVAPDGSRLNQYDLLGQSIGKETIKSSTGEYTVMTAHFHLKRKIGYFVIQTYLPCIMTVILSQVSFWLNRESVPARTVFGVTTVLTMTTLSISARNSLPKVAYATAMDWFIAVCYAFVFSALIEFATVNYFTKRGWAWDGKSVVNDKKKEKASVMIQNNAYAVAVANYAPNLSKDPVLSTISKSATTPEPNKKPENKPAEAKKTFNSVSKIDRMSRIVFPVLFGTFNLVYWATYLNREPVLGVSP
T2 sequence (P28472 26-473 partner): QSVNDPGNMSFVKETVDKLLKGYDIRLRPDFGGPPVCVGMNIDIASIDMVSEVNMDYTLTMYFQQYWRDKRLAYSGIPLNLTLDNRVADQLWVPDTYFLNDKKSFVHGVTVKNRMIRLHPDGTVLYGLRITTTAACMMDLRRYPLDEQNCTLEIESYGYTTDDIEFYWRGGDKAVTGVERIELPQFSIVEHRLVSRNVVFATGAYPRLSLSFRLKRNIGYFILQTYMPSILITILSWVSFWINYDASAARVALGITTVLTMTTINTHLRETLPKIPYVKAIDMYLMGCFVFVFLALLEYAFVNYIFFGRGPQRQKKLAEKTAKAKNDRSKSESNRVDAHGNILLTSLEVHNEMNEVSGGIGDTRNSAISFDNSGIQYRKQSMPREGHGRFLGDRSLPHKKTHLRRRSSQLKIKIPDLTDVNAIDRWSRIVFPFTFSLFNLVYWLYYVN
T2 sequence (P18507 40-475): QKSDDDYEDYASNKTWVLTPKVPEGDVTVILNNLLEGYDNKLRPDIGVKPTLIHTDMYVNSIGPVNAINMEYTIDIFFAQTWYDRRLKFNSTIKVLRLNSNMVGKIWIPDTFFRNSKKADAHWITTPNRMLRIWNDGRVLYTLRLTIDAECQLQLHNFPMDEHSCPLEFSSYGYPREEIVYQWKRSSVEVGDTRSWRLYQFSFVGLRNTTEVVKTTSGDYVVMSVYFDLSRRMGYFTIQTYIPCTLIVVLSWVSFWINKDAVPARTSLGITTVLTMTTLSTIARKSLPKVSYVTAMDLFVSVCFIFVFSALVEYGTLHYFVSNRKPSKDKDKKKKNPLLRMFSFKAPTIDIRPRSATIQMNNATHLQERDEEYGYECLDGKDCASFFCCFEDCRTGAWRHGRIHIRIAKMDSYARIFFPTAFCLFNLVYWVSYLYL

[3] = molecular target: T3, GABAA1 (human α1β2γ2 GABAA receptor) (Homo sapiens, UniProt P14867+P18507); assay: Two-electrode voltage-clamp in Xenopus oocytes, potentiation of GABA EC10 current, GABAA1; format: cell-based; conditions: percentage potentiation of GABA EC10 current divided by that of diazepam
T3 construct: expressed in transfected cells; host or cells: Xenopus laevis oocytes injected with capped cRNA
T3 sequence (P14867 28-456): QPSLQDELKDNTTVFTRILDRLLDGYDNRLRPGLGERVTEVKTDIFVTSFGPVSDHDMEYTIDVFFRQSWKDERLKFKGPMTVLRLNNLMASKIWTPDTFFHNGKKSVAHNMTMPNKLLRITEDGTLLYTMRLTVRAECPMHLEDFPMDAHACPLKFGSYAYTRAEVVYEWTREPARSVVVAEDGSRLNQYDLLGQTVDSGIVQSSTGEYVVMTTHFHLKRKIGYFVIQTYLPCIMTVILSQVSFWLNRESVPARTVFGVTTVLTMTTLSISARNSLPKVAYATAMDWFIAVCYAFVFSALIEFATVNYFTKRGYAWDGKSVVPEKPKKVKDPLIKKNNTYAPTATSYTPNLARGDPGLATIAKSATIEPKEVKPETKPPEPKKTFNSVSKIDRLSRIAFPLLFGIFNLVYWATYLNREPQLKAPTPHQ
T3 sequence (P47870 25-512 partner limits assumed): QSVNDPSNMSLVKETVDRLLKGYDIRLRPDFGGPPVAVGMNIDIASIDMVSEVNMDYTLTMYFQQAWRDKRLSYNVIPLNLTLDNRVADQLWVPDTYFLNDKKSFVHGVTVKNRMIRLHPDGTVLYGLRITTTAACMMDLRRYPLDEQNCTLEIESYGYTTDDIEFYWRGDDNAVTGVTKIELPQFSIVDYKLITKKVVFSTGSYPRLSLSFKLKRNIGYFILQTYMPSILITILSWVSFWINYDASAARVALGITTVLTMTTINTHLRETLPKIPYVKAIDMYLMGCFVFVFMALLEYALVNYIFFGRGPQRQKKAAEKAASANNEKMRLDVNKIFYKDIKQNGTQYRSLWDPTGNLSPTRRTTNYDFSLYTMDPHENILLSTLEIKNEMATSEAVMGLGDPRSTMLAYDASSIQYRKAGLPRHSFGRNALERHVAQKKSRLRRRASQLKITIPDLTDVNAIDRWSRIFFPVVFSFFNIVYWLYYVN
T3 sequence (P18507 40-475): as the sequence (P18507 40-475) above

[4] = molecular target: human Melatonin receptor 1 (MT1) (Homo sapiens, UniProt P48039); assay: biochemical; conditions: for Emax: read-out: MT1 Receptor GTPgS Emax; for EC50: hMT1/HEK293F membranes, agonist potency, read-out: MT1 Receptor GTPgS EC50; for MT1 Receptor GTPgS Emax: efficacy, 100% effect = 3 nM 2-Iodomelatonin, 0% = vehicle
Sequence of human Melatonin receptor 1 (MT1) (P48039 whole entry): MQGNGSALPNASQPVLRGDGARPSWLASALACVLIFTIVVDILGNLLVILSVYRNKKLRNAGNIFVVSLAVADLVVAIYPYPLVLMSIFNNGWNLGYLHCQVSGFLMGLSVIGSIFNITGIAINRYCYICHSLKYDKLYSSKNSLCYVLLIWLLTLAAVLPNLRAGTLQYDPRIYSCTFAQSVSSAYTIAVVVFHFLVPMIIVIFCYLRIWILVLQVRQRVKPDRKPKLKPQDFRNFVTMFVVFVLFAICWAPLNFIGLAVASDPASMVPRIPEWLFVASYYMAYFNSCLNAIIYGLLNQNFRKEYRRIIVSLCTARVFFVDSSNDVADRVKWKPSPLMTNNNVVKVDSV
Description: Method II MT1 GTPγ^35S-SPA Assay Test Validation Standards
Test compounds were synthesized in house. […] 2 μl of diluted compounds were transferred to Optic-assay-plates.
(Freshly add protease inhibitor cocktail tables from Roche). […] The protein concentration of the membrane was determined. The membranes were aliquoted and stored at −80° C.
• MAX response (100% effect) was determined as the effect of 3 nM of 2-lodomelatonin. • MIN response (0% effect) was determined as the effect of vehicle control. Description of Experimental Procedure
The final concentration of GTPγ^35S was 200 pM.

[5] = molecular target: MT1 Receptor (Homo sapiens, UniProt P48039); assay: biochemical; format: binding; conditions: for Ki: read-out: MT1 Receptor Binding Ki
Sequence of MT1 Receptor (P48039 whole entry): as above

T1 sequence (P47869 29-451): as the sequence (P47869 29-451) above
T1 sequence (P28472 26-473 partner): as the sequence (P28472 26-473 partner) above
T1 sequence (P18507 40-475): as the sequence (P18507 40-475) above

SMILES	Relative Potentiation for GABAA2 [1]	Ki [2] [nM]	Relative Potentiation for GABAA1 [3]	further results
CCCNC(=O)c1nnc2c(-c3ccc(F)cc3OC)c(F)ccc2c1N	0.18	0.565	−0.028	–
CCCNC(=O)c1nnc2c(-c3ccc(OC)cc3F)c(F)ccc2c1N	0.18	0.613	0.053	–
CCCNC(=O)c1nnc2c(-c3cccc(C)c3C)c(F)ccc2c1N	0.13	0.615	0.11	–
COc1cccc(F)c1-c1cccc2c(N)c(C(=O)NC3CC3)nnc12	0.16	0.698	−0.048	–
CCCNC(=O)c1nnc2c(-c3cc(Cl)ccc3Cl)cccc2c1N	0.21	0.71	0.12	–
CCCNC(=O)c1nnc2c(-c3cc(F)ccc3C)c(F)ccc2c1N	0.12	0.735	0.032	–
CCCNC(=O)c1nnc2c(-c3cc(C)ccc3F)cccc2c1N	0.37	0.852	0.095	–
CCCNC(=O)c1nnc2c(-c3cnc(OC)nc3OC)c(F)ccc2c1N	0.39	0.918	0.12	–
CCCNC(=O)c1nnc2c(-c3cc(C)ccc3OC)c(F)ccc2c1N	0.37	0.937	0.23	–
CCCNC(=O)c1nnc2c(-c3cccc(OC)c3F)c(F)ccc2c1N	0.23	0.941	0.05	–
CCCNC(=O)c1nnc2c(-c3cc(F)ccc3OC)c(F)ccc2c1N	0.22	0.98	0.085	–
CCCNC(=O)c1nnc2c(-c3cc(F)ccc3F)cccc2c1N	0.29	0.996	−0.078	–
CCCNC(=O)c1nnc2c(-c3ccccc3)c(F)ccc2c1N	0.02	1	−0.093	–
CCCNC(=O)c1nnc2c(-c3cc(Cl)ccc3OC)cccc2c1N	0.4	1.11	0.38	–
CCCNC(=O)c1nnc2c(-c3cccnc3F)cccc2c1N	0.17	1.13	−0.083	–
CCCNC(=O)c1nnc2c(-c3cccc(C#N)c3)cccc2c1N	0.31	1.18	0.088	–
CCCNC(=O)c1nnc2c(-c3cc(OC)ccc3Cl)c(F)ccc2c1N	0.19	1.25	0.14	–

SMILES	Relative Potentiation for GABAA2 [1]	Ki [2] [nM]	Relative Potentiation for GABAA1 [3]	further results
CCCNC(=O)c1nnc2c(-c3cc(C)ccc3C)c(F)ccc2c1N	0.28	1.31	0.21	–
CCCNC(=O)c1nnc2c(-c3cc(C(F)(F)F)ccc3Cl)cccc2c1N	0.59	1.36	0.47	–
CCCNC(=O)c1nnc2c(-c3cc(F)c(OC)cc3F)cccc2c1N	0.21	1.49	0.016	–
CCCNC(=O)c1nnc2c(-c3ccncc3)cccc2c1N	0.1	1.67	−0.038	–
CCCNC(=O)c1nnc2c(-c3ccc(C)nc3F)cccc2c1N	0.27	1.67	0.053	–
CCCNC(=O)c1nnc2c(-c3cnccc3C)cccc2c1N	0.11	1.68	0.083	–
CCCNC(=O)c1nnc2c(-c3ccc(F)cc3F)cccc2c1N	0.12	1.72	−0.088	–
CCCNC(=O)c1nnc2c(-c3cc(OC)ccc3F)cccc2c1N	0.32	1.73	0.26	–
CCCNC(=O)c1nnc2c(-c3cccc(Cl)c3Cl)cccc2c1N	0.053	1.82	0.067	–
CCCCNC(=O)c1nnc2c(-c3cnccc3OC)cccc2c1N	0.52	1.84	0.2	–
CCCNC(=O)c1nnc2c(-c3cc(C)ccc3OC)cccc2c1N	–	–	–	Emax [4]: 61%
CCCNC(=O)c1nnc2c(-c3cnccc3OC)cccc2c1N	–	–	–	Emax [4]: 64%
CCCNC(=O)c1nnc2c(-c3cnc(OC)nc3OC)cccc2c1N	–	–	–	Emax [4]: 70%
CCCNC(=O)c1nnc2c(-c3cc(OC)ccc3OC)c(F)ccc2c1N	–	–	–	EC50 [4]: 23.6 nM; Emax [4]: 64%; Ki [5]: 31 nM
CCCNC(=O)c1nnc2c(-c3cc(OC)ccc3OC)cccc2c1N [drawing 417]	–	–	–	MT1 Receptor GTPgS Emax [4]: 100; EC50 [4]: 37.5 nM; MT1 Receptor Binding % Inhibition at 1 μM ([5]; at 1 μM): 86%; Ki [5]: 60 nM
CCCNC(=O)c1nnc2c(-c3cc(OC)ccc3OC)cccc2c1N [drawing 421]	–	–	–	MT1 Receptor GTPgS Emax [4]: 61; EC50 [4]: 26.7 nM; inhibition at 1 µM ([5]; at 1 μM, read-out: MT1 Receptor Binding % Inhibition at 1 μM): 91%; Ki [5]: 36 nM
